Measurements published in patent publication US20170198006A1, “PRMT5 INHIBITORS AND USES THEREOF” (Epizyme, Inc., priority 2014, published 2017).
Read-outs that look alike come from different tables or passages of the source.

Target: T1, PRMT5/MEP50 (Homo sapiens, UniProt O14744)
T1 construct: Flag-PRMT5; made in house; host or cells: Spodoptera frugiperda (SF9), baculovirus
Assay: PRMT5 Biochemical Assay (PRMT5/MEP50 enzyme assay on histone H4 peptide substrate, 3H-SAM Flashplate)
From the text: S-adenosylmethionine (SAM), S-adenosylhomocysteine (SAH), bicine, KCl, Tween20, dimethylsulfoxide (DMSO), bovine skin gelatin (BSG), and Tris(2-carboxyethyl)phosphine hydrochloride solution (TCEP) were purchased from Sigma-Aldrich at the highest level of purity possible. ^3H-SAM was purchase from American Radiolabeled Chemicals with a specific activity of 80 Ci/mmol. 384-well streptavidin Flashplates were purchased from PerkinElmer.
Peptide representative of human histone H4 residues 1-15 was synthesized with a C-terminal linker-affinity tag motif and a C-terminal amide cap by 21st Century Biochemicals.
The amplified genes were sublconed into pENTR/D/TEV (Life Technologies) and subsequently transferred by Gateway™ attL×attR recombination to pDEST8 baculvirus expression vector (Life Technologies).
Protein over-expression was accomplished by infecting exponentially growing Spodoptera frugiperda (SF9) cell culture at 1.2×10^6 cell/ml with a 5000 fold dilution of BIIC stock. Infections were carried out at 27° C. for 72 hours, harvested by centrifugation, and stored at −80° C. for purification.
Flag-PRMT5/6His-MeP50 was eluted with 300 mM Imidazole in the same buffer.
General Procedure for PRMT5/MEP50 Enzyme Assays on Peptide Substrates.
The assays were all performed in a buffer consisting of 20 mM Bicine (pH=7.6), 1 mM TCEP, 0.005% BSG, and 0.002% Tween20, prepared on the day of use. […] DMSO (1 ul) was added to Columns 11, 12, 23, 24, rows A-H for the maximum signal control and 1 ul of SAH, a known product and inhibitor of PRMT5/MEP50, was added to columns 11, 12, 23, 24, rows I-P for the minimum signal control. A cocktail (40 ul) containing the PRMT5/MEP50 enzyme and the peptide was added by Multidrop Combi (Thermo-Fisher). The compounds were allowed to incubate with PRMT5/MEP50 for 30 min at 25 degrees Celsius, then a cocktail (10 ul) containing ^3H-SAM was added to initiate the reaction (final volume=51 ul). […] The assays were stopped by the addition of non-radioactive SAM (10 ul) to a final concentration of 600 uM, which dilutes the ^3H-SAM to a level where its incorporation into the peptide substrate is no longer detectable. 50 ul of the reaction in the 384-well polypropylene plate was then transferred to a 384-well Flashplate and the biotinylated peptides were allowed to bind to the streptavidin surface for at least 1 hour before being washed three times with 0.1% Tween20 in a Biotek ELx405 plate washer. The plates were then read in a PerkinElmer TopCount plate reader to measure the quantity of ^3H-labeled peptide bound to the Flashplate surface, measured as disintegrations per minute (dpm) or alternatively, referred to as counts per minute (cpm).
Where dpm=disintegrations per minute, cmpd=signal in assay well, and min and max are the respective minimum and maximum signal controls.
Where top and bottom are the normally allowed to float, but may be fixed at 100 or 0 respectively in a 3-parameter fit. The Hill Coefficient normally allowed to float but may also be fixed at 1 in a 3-parameter fit. Y is the % inhibition and X is the compound concentration.

[1] = PRMT5 biochemical assay, read-out: Biochemical IC50

T1 sequence (O14744 with tags, fused parts or gaps): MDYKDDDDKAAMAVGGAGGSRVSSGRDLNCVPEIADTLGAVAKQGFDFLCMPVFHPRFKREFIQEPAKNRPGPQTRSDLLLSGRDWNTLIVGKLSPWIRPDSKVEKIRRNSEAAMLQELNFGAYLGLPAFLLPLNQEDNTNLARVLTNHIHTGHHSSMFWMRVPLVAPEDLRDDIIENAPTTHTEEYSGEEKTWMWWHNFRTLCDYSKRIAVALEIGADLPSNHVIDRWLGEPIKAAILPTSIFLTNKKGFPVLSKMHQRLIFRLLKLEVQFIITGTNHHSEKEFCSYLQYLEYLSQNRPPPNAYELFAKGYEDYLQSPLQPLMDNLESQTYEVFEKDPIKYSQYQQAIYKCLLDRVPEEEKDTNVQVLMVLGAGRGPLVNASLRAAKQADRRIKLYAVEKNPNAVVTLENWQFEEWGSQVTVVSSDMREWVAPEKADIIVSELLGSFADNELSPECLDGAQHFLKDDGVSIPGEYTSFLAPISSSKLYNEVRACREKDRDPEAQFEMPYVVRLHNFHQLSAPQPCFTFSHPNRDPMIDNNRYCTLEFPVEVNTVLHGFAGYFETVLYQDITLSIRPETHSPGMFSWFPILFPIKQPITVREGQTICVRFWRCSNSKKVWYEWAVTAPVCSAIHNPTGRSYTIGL
T1 sequence (Q9BQA1 with tags, fused parts or gaps partner limits assumed): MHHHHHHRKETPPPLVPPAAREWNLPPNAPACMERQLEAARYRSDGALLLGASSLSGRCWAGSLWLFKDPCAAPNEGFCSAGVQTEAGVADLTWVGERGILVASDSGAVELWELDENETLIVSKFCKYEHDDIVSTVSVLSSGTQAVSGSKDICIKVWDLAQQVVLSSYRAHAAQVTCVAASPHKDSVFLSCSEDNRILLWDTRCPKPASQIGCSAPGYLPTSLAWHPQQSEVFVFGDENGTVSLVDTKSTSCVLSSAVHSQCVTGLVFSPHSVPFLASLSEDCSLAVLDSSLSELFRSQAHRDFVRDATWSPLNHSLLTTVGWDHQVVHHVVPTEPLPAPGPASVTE

Row | IC50 [1] [µM] | IC50 [µM] | SMILES
1 | 0.101 to 1 |  | CCC(COC)NCCN(C)C[C@H]1O[C@@H](n2cnc3c(N)ncnc32)[C@H](O)[C@@H]1O (stereo partly drawn) [Compound 62-1]
2 |  | < 0.1 | NCCCSC[C@H]1O[C@@H](n2cnc3c(N)ncnc32)[C@H](O)[C@@H]1O [Compound 89-1]
3 | 0.101 to 1 |  | CCCN(CCN(C)C[C@H]1O[C@@H](n2cnc3c(N)ncnc32)[C@H](O)[C@@H]1O)CC1CC1 [Compound 42-1]
4 | 0.101 to 1 |  | CN(CCN(CCc1ccc(Cl)cc1)Cc1ccccc1)C[C@H]1O[C@@H](n2cnc3c(N)ncnc32)[C@H](O)[C@@H]1O [Compound 51-1]
5 | 1 to 10 |  | Cc1ccc(C(=O)CC2NC(N3CCN(c4ccc(F)cc4)CC3)=NC2=O)cc1 (stereo not drawn) [Compound 32-14]
6 | 1 to 10 |  | N#Cc1ccc(C(=O)CC2NC(N3CCN(c4ccccc4)CC3)=NC2=O)cc1 (stereo not drawn) [Compound 40-14]
7 | 0.101 to 1 |  | O=C(CC1NC(N2CCN(c3ccccc3)CC2)=NC1=O)Nc1ccc(Br)cc1 (stereo not drawn) [Compound 4-6]
8 | 0.101 to 1 |  | O=C(CC1NC(N2CCN(c3ccccc3)CC2)=NC1=O)Nc1ccc(Cl)c(Cl)c1 (stereo not drawn) [Compound 59-14]
9 | < 0.1 |  | Nc1ncnc2c1ncn2[C@@H]1O[C@H](CN(CCCC(=O)OCc2ccccc2)CCNCCc2ccc(Cl)cc2)[C@@H](O)[C@H]1O [Compound 78-1]
10 | < 0.1 |  | Nc1ncnc2c1ncn2[C@@H]1O[C@H](CN(CCNCCc2ccc(Cl)cc2)Cc2ccccc2)[C@@H](O)[C@H]1O [Compound 81-1]
11 | 10 to 50 |  | O=C(CC1NC(N2CCN(c3ccccc3)CC2)=NC1=O)NCC1CCOCC1 (stereo not drawn) [Compound 70-14]
12 | < 0.1 |  | COc1ccccc1C(=O)CC1NC(N2CCc3ccccc3C2)=NC1=O (stereo not drawn) [Compound 5-6]
13 | < 0.1 |  | CC(NCCN(C)C[C@H]1O[C@@H](n2cnc3c(N)ncnc32)[C@H](O)[C@@H]1O)c1ccc(Br)cc1 (stereo partly drawn) [Compound 18-1]
14 | < 0.1 |  | Nc1ncnc2c1ncn2[C@@H]1O[C@H](CSCCC(N)CO)[C@@H](O)[C@H]1O (stereo partly drawn) [Compound 90-1]
15 | < 0.1 |  | CN(CCNCCc1ccc(O)cc1)C[C@H]1O[C@@H](n2cnc3c(N)ncnc32)[C@H](O)[C@@H]1O [Compound 70-1]
16 | 0.101 to 1 |  | NCCNC[C@H]1O[C@@H](n2cnc3c(N)ncnc32)[C@H](O)[C@@H]1O [Compound 29-1]
17 | 0.101 to 1 |  | O=C(CC1NC(N2CC=C(c3ccccc3)CC2)=NC1=O)Nc1ccc(Cl)cc1 (stereo not drawn) [Compound 72-14]
18 | 1 to 10 |  | Cc1cc(NC(=O)CC2NC(N3CCN(c4ccccc4)CC3)=NC2=O)ccc1Cl (stereo not drawn) [Compound 74-14]
19 | < 0.1 |  | CCN(CCN(C)C[C@H]1O[C@@H](n2cnc3c(N)ncnc32)[C@H](O)[C@@H]1O)Cc1ccncc1 [Compound 17-1]
20 | 0.101 to 1 |  | COc1ccccc1C(=O)CC1NC(N2CCC(c3ccccc3)CC2)=NC1=O (stereo not drawn) [Compound 48-14]

Row | IC50 [1] [µM] | IC50 [µM] | SMILES
21 | 1 to 10 |  | O=C(CC1NC(N2CCc3ccccc3C2)=NC1=O)Nc1ccccc1 (stereo not drawn) [Compound 13-14]
22 | < 0.1 |  | CN(CCNCc1ccc(F)cc1)C[C@H]1O[C@@H](n2cnc3c(N)ncnc32)[C@H](O)[C@@H]1O [Compound 16-1]
23 | 0.101 to 1 |  | CN(CCNCc1ccc(Cl)cc1Cl)C[C@H]1O[C@@H](n2cnc3c(N)ncnc32)[C@H](O)[C@@H]1O [Compound 7-1]
24 | 0.101 to 1 |  | O=C(CC1NC(N2CCN(c3ccccc3)CC2)=NC1=O)c1ccccc1Cl (stereo not drawn) [Compound 2-6]
25 | 10 to 50 |  | COc1ccccc1C(O)CC1N=C(N2CCN(c3ccccc3)CC2)NC1=O (stereo not drawn) [Compound 54-14]
26 | < 0.1 |  | CN(CCNCCc1c[nH]c2ccccc12)C[C@H]1O[C@@H](n2cnc3c(N)ncnc32)[C@H](O)[C@@H]1O [Compound 55-1]
27 | 1 to 10 |  | O=C(CC1NC(N2CCN(c3ccccc3)CC2)=NC1=O)Nc1cccc(Cl)c1 (stereo not drawn) [Compound 50-14]
28 | 1 to 10 |  | O=C(CC1NC(N2CCN(c3ccccc3)CC2)=NC1=O)Nc1ccccc1 (stereo not drawn) [Compound 18-14]
29 | 1 to 10 |  | CCOc1ccc(NC(=O)CC2NC(N3CCN(c4ccccc4F)CC3)=NC2=O)cc1 (stereo not drawn) [Compound 15-14]
30 | 1 to 10 |  | Cc1cccc(NC(=O)CC2NC(N3CCN(c4ccccc4)CC3)=NC2=O)c1 (stereo not drawn) [Compound 8-14]
31 | 0.101 to 1 |  | CN(CCNCc1ccc(OC(F)F)cc1)C[C@H]1O[C@@H](n2cnc3c(N)ncnc32)[C@H](O)[C@@H]1O [Compound 1-1]
32 | 1 to 10 |  | CC(C)c1ccc(NC(=O)CC2NC(N3CCN(c4ccccn4)CC3)=NC2=O)cc1 (stereo not drawn) [Compound 16-14]
33 | 1 to 10 |  | Cc1ccc(C(=O)CC2NC(N3CCN(c4ccccn4)CC3)=NC2=O)cc1 (stereo not drawn) [Compound 33-14]
34 | 0.101 to 1 |  | CN(CCO)CCN(C)C[C@H]1O[C@@H](n2cnc3c(N)ncnc32)[C@H](O)[C@@H]1O [Compound 46-1]
35 | 0.101 to 1 |  | COc1ccccc1C(=O)CC1NC(N2CCN(c3ccccc3)CC2)=NC1=O (stereo not drawn) [Compound 3-6]
36 | 1 to 10 |  | COc1ccc(N2CCN(C3=NC(=O)C(CC(=O)Nc4ccc(C(C)=O)cc4)N3)CC2)cc1 (stereo not drawn) [Compound 21-14]
37 | 1 to 10 |  | Cc1ccc(NC(=O)CC2NC(N3CCN(c4ccccc4)CC3)=NC2=O)cc1 (stereo not drawn) [Compound 67-14]
38 | 0.101 to 1 |  | COc1cc(Cl)ccc1NC(=O)CC1NC(N2CCN(c3ccccc3)CC2)=NC1=O (stereo not drawn) [Compound 63-14]
39 | 0.101 to 1 |  | CN(CCN1CCN(CCc2ccccc2)CC1)C[C@H]1O[C@@H](n2cnc3c(N)ncnc32)[C@H](O)[C@@H]1O [Compound 45-1]
40 | 0.101 to 1 |  | CN1CCC(N(C)C[C@H]2O[C@@H](n3cnc4c(N)ncnc43)[C@H](O)[C@@H]2O)C1 (stereo partly drawn) [Compound 85-1]

Row | IC50 [1] [µM] | IC50 [µM] | SMILES
41 | 1 to 10 |  | Cc1ccc(NC(=O)CC2NC(N3CCc4ccccc4C3)=NC2=O)cc1 (stereo not drawn) [Compound 23-14]
42 | 1 to 10 |  | Cc1ccc(NC(=O)CC2NC(N3CCN(Cc4ccccc4)CC3)=NC2=O)cc1 (stereo not drawn) [Compound 9-14]
43 | 0.101 to 1 |  | CN(CCNCc1ccc(Cl)cc1)C[C@H]1O[C@@H](n2cnc3c(N)ncnc32)[C@H](O)[C@@H]1O [Compound 8-1]
44 | 1 to 10 |  | Cc1cc(Cl)ccc1NC(=O)CC1NC(N2CCN(c3ccccc3)CC2)=NC1=O (stereo not drawn) [Compound 66-14]
45 | 0.101 to 1 |  | CN(CCNCCc1ccccc1)C[C@H]1O[C@@H](n2cnc3c(N)ncnc32)[C@H](O)[C@@H]1O [Compound 79-1]
46 | 1 to 10 |  | COc1ccc(C(=O)CC2NC(N3CCN(c4ccccc4)CC3)=NC2=O)cc1 (stereo not drawn) [Compound 38-14]
47 | 1 to 10 |  | Cc1ccc(C(=O)CC2NC(N3CCN(c4ccccc4F)CC3)=NC2=O)cc1 (stereo not drawn) [Compound 30-14]
48 | 10 to 50 |  | COc1ccccc1NC(=O)CC1NC(N2CCN(c3ccccc3)CC2)=NC1=O (stereo not drawn) [Compound 60-14]
49 | 1 to 10 |  | CCN1CCN(C2=NC(=O)C(CC(=O)Nc3ccc(C(C)=O)cc3)N2)CC1 (stereo not drawn) [Compound 14-14]
50 | 10 to 50 |  | Cc1ccc(C(=O)CC2NC(N3CCN(c4ccncc4)CC3)=NC2=O)cc1 (stereo not drawn) [Compound 34-14]
51 | 0.101 to 1 |  | CC(N)CCN(C)C[C@H]1O[C@@H](n2cnc3c(N)ncnc32)[C@H](O)[C@@H]1O (stereo partly drawn) [Compound 22-1]
52 | 10 to 50 |  | CCOC(=O)c1ccc(NC(=O)CC2NC(N3CCN(C)CC3)=NC2=O)cc1 (stereo not drawn) [Compound 24-14]
53 | 1 to 10 |  | CCN1CCN(C2=NC(=O)C(CC(=O)Nc3ccc(C)cc3)N2)CC1 (stereo not drawn) [Compound 5-14]
54 | 0.101 to 1 |  | CN(C)CCN(C)C[C@H]1O[C@@H](n2cnc3c(N)ncnc32)[C@H](O)[C@@H]1O [Compound 37-1]
55 | 10 to 50 |  | COc1ccc(N2CCN(C3=NC(=O)C(CC(=O)Nc4ccccc4)N3)CC2)cc1 (stereo not drawn) [Compound 25-14]
56 | 0.101 to 1 |  | CC(C)N(CCN)C[C@H]1O[C@@H](n2cnc3c(N)ncnc32)[C@H](O)[C@@H]1O [Compound 26-1]
57 | < 0.1 |  | CN(CCNc1ccccc1)CC1O[C@@H](n2cnc3c(N)ncnc32)[C@H](O)[C@@H]1O (stereo partly drawn) [Compound 57-1]
58 | 10 to 50 |  | O=C(CC1NC(N2CCN(c3ccccc3)CC2)=NC1=O)Nc1cccc(Cl)c1Cl (stereo not drawn) [Compound 51-14]
59 | < 0.1 |  | Nc1ncnc2c1ncn2[C@@H]1O[C@H](CSCC[C@H](N)CO)[C@@H](O)[C@H]1O [Compound 91-1, (2S, 3S, 4R, 5R)-2-((((S)-3-amino-4-hydroxybutyl)thio)methyl)-5-(6-amino-9H-purin-9-yl)tetrahydrofuran-3,4-diol]
60 | 0.101 to 1 |  | Cc1ccc(C(=O)CC2NC(N3CCc4ccccc4C3)=NC2=O)cc1 (stereo not drawn) [Compound 29-14]
